From patent US9926299B2, “Inhibitors of bruton's tyrosine kinase” (Centaurus BioPharma Co., Ltd., priority 2012, dated 2018)

Columns and labels:
BTK kinase = BTK kinase (Homo sapiens (Human), UniProt Q06187); experiment: Btk kinase enzymatic assay (HTRF); assay type: biochemical; details: ATP at Km
Protocol: Btk kinase activity was determined using a Homogeneous Time-Resolved Fluorescence (HTRF) methodology (Cisbio). […] The mixture was centrifuged and incubated for 5 min. […] For each compound, enzyme activity was measured at various concentrations of compound, and IC50s were obtained by GraFit Software 6.0 (Erithacus Software).

Ramos cells = experiment: BCR-induced calcium flux fluorescence-based assay in Ramos cells; details: Ramos cells stimulated with goat anti-human IgM antibody; read-out: Ramos Cell Ca Flux IC50
Protocol: Calcium flux fluorescence-based assays were performed using Fluo-4 Direct™ Calcium Assay Kits (purchased from Invitrogen) in a FlexStation III (purchased from Molecular Devices) according to manufacturer instructions. In brief, actively growing Romas cells in RPM1-1640 medium (purchased from Invitrogen) supplemented with 10% FBS (purchased from Hyclone) were washed and re-plated in low serum medium at approximately 1×10^5 cells per 45 μL per well in a 96-well plate (purchased from Corning), then added 45 μL of dye (purchased from Invitrogen) and incubated at 37 degree for 1 hour. Compounds to be assayed were dissolved and 3-fold serially diluted in DMSO and then diluted by 100 times in low serum medium. Then 10 μL of the diluted mixture were added to the above 96-well plate (final DMSO concentration was 0.1%) and incubated at 37 degree in 5% CO2 incubator for 0.5 hour. The compound-treated cells were stimulated with a goat anti-human IgM antibody (10 μg/ml; purchased from SouthernBiotech) and read in the FlexStation III using a λEx=494 nM and […] for 90 seconds. The relative fluorescence unit (RFU) and the IC50 were recorded and analyzed using a GraphPad Prism 5 (GraphPad Software).

Chain of BTK kinase (Q06187 whole entry): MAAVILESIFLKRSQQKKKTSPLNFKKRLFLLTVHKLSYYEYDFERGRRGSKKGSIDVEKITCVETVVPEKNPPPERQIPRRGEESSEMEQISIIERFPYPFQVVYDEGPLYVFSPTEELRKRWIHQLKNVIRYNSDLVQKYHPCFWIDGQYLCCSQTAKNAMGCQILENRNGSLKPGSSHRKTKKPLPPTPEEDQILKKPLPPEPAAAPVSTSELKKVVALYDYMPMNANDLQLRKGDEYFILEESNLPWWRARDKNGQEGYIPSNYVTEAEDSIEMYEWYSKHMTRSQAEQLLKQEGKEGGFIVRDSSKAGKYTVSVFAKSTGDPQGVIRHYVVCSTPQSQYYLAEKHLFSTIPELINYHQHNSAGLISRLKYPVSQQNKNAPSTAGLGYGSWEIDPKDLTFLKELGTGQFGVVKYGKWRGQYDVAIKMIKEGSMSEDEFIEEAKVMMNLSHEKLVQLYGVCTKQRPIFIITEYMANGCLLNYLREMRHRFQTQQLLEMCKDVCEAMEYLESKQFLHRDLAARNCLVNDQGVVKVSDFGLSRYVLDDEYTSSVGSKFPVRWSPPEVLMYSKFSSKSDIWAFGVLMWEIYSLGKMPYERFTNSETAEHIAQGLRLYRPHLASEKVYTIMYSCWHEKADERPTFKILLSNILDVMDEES

| Compound | IC50 (BTK kinase) | IC50 (Ramos cells) |
| --- | --- | --- |
| C=CC(=O)N(C)CCn1nc(-c2ccc(Oc3ccccc3)cc2)c(C(N)=O)c1N [Example 30, 5-amino-1-(2-(N-methylacrylamido)ethyl)-3-(4-phenoxyphenyl)-1H-pyrazole-4-carboxamide] | < 100 nM | < 100 nM |
| CN(CCn1nc(-c2ccc(Oc3ccccc3)cc2)c(C(N)=O)c1N)C(=O)CCl [Example 34, 5-amino-1-(2-(2-chloro-N-methylacetamido)ethyl)-3-(4-phenoxyphenyl)-1H-pyrazole-4-carboxamide] | < 100 nM | < 100 nM |
| C#CC(=O)N(C)CCn1nc(-c2ccc(Oc3ccccc3)cc2)c(C(N)=O)c1N [Example 32, 5-amino-1-(2-(N-methylpropiolamido)ethyl)-3-(4-phenoxyphenyl)-1H-pyrazole-4-carboxamide] | < 100 nM | < 100 nM |

Continued, values first:

| IC50 (BTK kinase) | IC50 (Ramos cells) | Compound |
| --- | --- | --- |
| < 100 nM | < 100 nM | C=CC(=O)N1CC[C@@H](n2nc(-c3ccc(Oc4cc([N+](=O)[O-])ccc4C)cc3)c(C(N)=O)c2N)C1 [Example 47, (R)-1-(1-acryloylpyrrolidin-3-yl)-5-amino-3-(4-(2-methyl-5-nitrophenoxy)phenyl)-1H-pyrazole-4-carboxamide] |
| < 100 nM | < 100 nM | C=CC(=O)N1CC[C@@H](n2nc(-c3ccc(Oc4cccc([N+](=O)[O-])c4)c(C)c3)c(C(N)=O)c2N)C1 [Example 49, (R)-1-(1-acryloylpyrrolidin-3-yl)-5-amino-3-(3-methyl-4-(3-nitrophenoxy)phenyl)-1H-pyrazole-4-carboxamide] |
| < 100 nM | < 100 nM | C=CC(=O)N1CC[C@@H](n2nc(-c3ccc(Oc4ccc(Cl)cc4)cc3)c(C(N)=O)c2N)C1 [Example 43, (R)-1-(1-acryloylpyrrolidin-3-yl)-5-amino-3-(4-(4-chlorophenoxyl)phenyl)-1H-pyrazole-4-carboxamide] |
| < 100 nM | < 100 nM | C=CC(=O)N1CCC(n2nc(-c3ccc(Oc4ccccc4)cc3)c(C(N)=O)c2N)CC1 [Example 24, 1-(1-acryloylpiperidin-4-yl)-5-amino-3-(4-phenoxyphenyl)-1H-pyrazole-4-carboxamide] |
| < 100 nM | < 100 nM | C=CC(=O)N1CC[C@@H](n2nc(-c3ccc(Oc4ccccc4Cl)cc3)c(C(N)=O)c2N)C1 [Example 45, (R)-1-(1-acryloylpyrrolidin-3-yl)-5-amino-3-(4-(2-chlorophenoxyl)phenyl)-1H-pyrazole-4-carboxamide] |
